Results: ChEMBL document CHEMBL6087433, “Discovery of ART0380, a Potent and Selective ATR Kinase Inhibitor Undergoing Phase 2 Clinical Studies for the Treatment of Advanced or Metastatic Solid Cancers” (J Med Chem, 2024)
Converted amounts (≈) assume the structure as drawn.

Columns and labels:
in vivo [1] = conditions: CD-1, mouse, po, 10 mg/kg
in vivo [2] = conditions: cynomolgus monkey, po, 10 mg/kg
in vitro [3] = conditions: dog, hepatocytes
in vivo [4] = conditions: cynomolgus monkey, po, 10 mg/kg; remark: listed apart in the source
[5] = biological target: Phosphatidylinositol 4,5-bisphosphate 3-kinase catalytic subunit gamma isoform (Homo sapiens, UniProt P48736)
Chain of Phosphatidylinositol 4,5-bisphosphate 3-kinase catalytic subunit gamma isoform (P48736 whole entry, canonical isoform): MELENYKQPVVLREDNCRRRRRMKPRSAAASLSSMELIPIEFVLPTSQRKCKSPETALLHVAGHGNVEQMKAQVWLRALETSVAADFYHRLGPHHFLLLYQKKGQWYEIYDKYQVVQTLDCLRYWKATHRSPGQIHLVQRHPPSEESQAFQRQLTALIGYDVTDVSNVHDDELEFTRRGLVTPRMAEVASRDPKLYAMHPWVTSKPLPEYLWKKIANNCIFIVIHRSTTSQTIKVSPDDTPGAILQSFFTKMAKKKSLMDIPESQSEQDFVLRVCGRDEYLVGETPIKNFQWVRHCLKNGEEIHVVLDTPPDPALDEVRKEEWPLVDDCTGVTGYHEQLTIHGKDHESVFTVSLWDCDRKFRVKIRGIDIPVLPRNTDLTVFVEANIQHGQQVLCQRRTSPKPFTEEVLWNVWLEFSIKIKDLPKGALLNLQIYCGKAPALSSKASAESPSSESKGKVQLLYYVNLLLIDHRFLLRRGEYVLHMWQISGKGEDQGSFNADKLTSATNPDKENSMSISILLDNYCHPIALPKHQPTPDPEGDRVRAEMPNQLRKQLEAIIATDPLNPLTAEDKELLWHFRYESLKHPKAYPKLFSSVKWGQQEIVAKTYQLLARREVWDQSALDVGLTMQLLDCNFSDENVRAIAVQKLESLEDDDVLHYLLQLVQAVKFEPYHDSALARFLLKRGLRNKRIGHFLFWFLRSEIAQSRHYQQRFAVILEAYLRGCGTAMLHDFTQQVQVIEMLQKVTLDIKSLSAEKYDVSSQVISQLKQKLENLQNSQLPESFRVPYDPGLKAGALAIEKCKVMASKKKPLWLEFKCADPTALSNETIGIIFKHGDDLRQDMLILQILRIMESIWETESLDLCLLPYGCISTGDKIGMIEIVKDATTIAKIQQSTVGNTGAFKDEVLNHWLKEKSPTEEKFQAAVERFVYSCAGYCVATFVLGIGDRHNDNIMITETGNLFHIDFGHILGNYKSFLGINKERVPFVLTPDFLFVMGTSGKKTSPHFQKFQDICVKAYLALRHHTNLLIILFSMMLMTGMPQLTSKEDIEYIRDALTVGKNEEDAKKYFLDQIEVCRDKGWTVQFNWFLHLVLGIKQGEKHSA

[6] = biological target: Phosphatidylinositol 4,5-bisphosphate 3-kinase catalytic subunit alpha isoform (Homo sapiens, UniProt P42336)
Chain of Phosphatidylinositol 4,5-bisphosphate 3-kinase catalytic subunit alpha isoform (P42336 whole entry, canonical isoform): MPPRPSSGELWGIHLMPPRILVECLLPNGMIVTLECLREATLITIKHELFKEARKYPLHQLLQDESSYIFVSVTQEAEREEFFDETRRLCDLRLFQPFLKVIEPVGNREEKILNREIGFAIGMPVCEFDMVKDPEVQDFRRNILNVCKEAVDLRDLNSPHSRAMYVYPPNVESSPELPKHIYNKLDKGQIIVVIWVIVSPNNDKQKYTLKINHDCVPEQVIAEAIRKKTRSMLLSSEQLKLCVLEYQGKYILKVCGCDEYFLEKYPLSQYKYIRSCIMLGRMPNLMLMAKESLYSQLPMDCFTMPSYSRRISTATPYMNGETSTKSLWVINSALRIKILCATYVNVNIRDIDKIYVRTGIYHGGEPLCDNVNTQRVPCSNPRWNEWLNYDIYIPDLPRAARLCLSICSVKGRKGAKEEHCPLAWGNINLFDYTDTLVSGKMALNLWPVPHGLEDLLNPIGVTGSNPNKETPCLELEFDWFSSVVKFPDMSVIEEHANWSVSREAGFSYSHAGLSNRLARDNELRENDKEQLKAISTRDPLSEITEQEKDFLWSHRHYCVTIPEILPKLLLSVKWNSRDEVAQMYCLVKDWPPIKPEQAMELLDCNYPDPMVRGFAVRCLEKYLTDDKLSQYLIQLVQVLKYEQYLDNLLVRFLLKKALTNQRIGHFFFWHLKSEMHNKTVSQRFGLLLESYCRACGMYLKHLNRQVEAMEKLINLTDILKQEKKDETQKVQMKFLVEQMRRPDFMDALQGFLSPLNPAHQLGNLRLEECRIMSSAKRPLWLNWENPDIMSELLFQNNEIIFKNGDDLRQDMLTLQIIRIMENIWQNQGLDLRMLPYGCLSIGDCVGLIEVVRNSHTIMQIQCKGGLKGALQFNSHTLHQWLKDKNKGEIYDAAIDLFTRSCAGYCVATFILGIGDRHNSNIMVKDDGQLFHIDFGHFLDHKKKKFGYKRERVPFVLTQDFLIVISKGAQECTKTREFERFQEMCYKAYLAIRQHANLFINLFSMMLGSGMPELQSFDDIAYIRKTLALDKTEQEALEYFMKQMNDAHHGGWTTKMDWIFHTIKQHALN

in vivo [7] = conditions: Beagle, dog, po, 10 mg/kg
in vivo [8] = conditions: CD-1, mouse, plasma, iv, 1 mg/kg
in vitro [9] = conditions: dog, plasma
Cytochrome P450 2D6 = Cytochrome P450 2D6 (Homo sapiens, UniProt P10635)
Chain of Cytochrome P450 2D6 (P10635 whole entry): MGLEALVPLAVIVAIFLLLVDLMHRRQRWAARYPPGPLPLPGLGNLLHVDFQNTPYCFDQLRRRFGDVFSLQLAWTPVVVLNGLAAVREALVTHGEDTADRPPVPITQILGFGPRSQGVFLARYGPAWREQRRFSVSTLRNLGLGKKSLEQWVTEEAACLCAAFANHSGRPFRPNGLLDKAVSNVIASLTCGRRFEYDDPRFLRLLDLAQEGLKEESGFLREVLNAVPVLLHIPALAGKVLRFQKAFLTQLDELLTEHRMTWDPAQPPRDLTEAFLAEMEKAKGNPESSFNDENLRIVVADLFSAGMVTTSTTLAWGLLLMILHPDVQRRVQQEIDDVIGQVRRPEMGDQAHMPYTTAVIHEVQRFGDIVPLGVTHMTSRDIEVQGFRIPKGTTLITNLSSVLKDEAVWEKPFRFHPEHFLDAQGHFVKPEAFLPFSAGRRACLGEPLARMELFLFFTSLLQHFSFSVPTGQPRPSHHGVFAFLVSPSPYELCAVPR

in vivo [10] = conditions: CD-1, mouse, po, 30 mg/kg
physchem [11] = conditions: aqueous buffer, pH 7.4
Cytochrome P450 2C8 = biological target: T1, Cytochrome P450 2C8 (Homo sapiens, UniProt P10632)
T1 sequence (P10632 whole entry): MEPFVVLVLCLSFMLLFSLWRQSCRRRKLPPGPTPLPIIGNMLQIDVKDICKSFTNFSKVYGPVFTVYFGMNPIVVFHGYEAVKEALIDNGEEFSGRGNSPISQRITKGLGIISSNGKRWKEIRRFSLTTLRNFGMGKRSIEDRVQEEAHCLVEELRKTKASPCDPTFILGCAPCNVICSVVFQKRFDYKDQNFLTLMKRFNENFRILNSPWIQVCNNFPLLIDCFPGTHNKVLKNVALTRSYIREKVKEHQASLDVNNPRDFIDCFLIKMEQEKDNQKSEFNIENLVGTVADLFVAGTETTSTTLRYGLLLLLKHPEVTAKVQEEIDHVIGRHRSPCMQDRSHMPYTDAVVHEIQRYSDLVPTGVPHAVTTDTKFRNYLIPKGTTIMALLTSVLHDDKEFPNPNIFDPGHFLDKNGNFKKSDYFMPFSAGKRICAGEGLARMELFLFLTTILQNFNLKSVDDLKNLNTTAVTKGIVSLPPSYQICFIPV

in vitro [12] = conditions: human, hepatocytes
in vivo [13] = conditions: CD-1, mouse, po, 30 mg/kg; remark: listed apart in the source
in vivo [14] = conditions: Sprague-Dawley, rat, po, 10 mg/kg
[15] = biological target: Phosphatidylinositol 4,5-bisphosphate 3-kinase catalytic subunit beta isoform (Homo sapiens, UniProt P42338)
Chain of Phosphatidylinositol 4,5-bisphosphate 3-kinase catalytic subunit beta isoform (P42338 whole entry, canonical isoform): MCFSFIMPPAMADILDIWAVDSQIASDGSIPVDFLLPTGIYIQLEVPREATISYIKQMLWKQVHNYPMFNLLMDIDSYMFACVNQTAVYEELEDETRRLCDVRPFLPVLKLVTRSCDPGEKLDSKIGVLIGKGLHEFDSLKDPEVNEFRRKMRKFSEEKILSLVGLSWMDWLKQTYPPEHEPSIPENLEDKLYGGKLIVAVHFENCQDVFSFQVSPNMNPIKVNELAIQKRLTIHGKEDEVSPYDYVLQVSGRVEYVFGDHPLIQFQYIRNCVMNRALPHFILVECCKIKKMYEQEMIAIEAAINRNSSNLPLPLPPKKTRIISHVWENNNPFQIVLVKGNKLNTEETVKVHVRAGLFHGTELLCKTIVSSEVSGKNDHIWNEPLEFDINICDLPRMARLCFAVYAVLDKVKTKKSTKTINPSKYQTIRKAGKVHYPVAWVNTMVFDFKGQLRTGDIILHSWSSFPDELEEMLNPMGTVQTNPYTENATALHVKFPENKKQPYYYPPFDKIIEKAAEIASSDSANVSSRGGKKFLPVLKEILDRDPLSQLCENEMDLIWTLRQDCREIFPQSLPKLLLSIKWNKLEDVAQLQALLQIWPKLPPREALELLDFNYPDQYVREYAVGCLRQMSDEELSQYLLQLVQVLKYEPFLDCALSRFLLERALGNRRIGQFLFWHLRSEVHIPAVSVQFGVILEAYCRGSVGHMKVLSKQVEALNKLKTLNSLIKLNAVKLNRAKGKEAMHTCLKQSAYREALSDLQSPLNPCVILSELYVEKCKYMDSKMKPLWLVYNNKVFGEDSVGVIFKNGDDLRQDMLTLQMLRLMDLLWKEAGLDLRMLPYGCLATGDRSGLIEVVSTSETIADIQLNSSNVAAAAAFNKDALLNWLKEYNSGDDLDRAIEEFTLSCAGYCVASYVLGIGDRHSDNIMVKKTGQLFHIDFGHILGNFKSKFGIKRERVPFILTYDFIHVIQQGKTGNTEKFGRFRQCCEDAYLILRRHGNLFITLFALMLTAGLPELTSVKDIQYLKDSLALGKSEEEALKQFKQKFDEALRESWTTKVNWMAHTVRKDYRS

in vivo [16] = conditions: CD-1, mouse, po, 30 mg/kg; remark: listed apart in the source
Cytochrome P450 3A4 = Cytochrome P450 3A4 (Homo sapiens, UniProt P08684)
Chain of Cytochrome P450 3A4 (P08684 whole entry): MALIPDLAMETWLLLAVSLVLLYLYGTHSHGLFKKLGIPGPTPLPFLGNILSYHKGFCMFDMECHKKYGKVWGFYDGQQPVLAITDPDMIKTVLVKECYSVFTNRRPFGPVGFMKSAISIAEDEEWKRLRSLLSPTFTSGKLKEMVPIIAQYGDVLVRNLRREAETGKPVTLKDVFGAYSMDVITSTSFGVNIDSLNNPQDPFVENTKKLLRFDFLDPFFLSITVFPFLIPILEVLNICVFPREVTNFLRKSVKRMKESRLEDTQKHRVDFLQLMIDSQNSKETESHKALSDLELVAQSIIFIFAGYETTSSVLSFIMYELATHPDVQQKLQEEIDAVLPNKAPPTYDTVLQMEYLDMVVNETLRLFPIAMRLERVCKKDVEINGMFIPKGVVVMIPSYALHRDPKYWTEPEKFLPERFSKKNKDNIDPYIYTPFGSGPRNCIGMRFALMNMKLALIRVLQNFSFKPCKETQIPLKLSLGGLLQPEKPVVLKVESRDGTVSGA

in vitro [17] = conditions: rat, hepatocytes
in vivo [18] = conditions: beagle, dog, iv, 1 mg/kg
in vitro [19] = conditions: cynomolgus monkey, plasma
physchem [20] = conditions: Fed State Simulated Intestinal Fluid

- bioavailability (in vivo [1]): 77%
- Cmax (in vivo [2]): 0.04 µM
- CLint scaled (in vitro [3]): 6 mL/min/kg
- Tmax (in vivo [4]): 49.8 min
- IC50 [5]: > 50 µM
- IC50 [6]: 29 µM
- Tmax (in vivo [7]): 34.8 min
- clearance (in vivo [8]): 69 mL/min/kg
- fraction unbound at 5 h, 5 µM (in vitro [9]): 0.55
- IC50 (Cytochrome P450 2D6): > 10 µM
- AUC(0-t) (in vivo [10]): 25.3 µM·h
- solubility thermodynamic (physchem [11]): 1500 µg/mL (≈ 3.86 mM)
- IC50 (Cytochrome P450 2C8): > 10 µM
- CLint scaled (in vitro [12]): 8 mL/min/kg
- Cmax (in vivo [13]): 16.1 µM
- bioavailability (in vivo [14]): 58%
- IC50 [15]: > 50 µM
- Tmax (in vivo [16]): 15 min
- IC50 (Cytochrome P450 3A4): > 10 µM
- CLint scaled (in vitro [17]): 29 mL/min/kg
- Vd (in vivo [18]): 3.6 L/kg
- fraction unbound at 5 h, 5 µM (in vitro [19]): 0.54
- solubility thermodynamic (physchem [20]): > 5000 µg/mL
Compound: C[C@@H]1COCCN1c1cc(N=[S@@](C)(=O)C2CC2)nc(-c2ccnc(N)c2)n1
